For data set [1], the system named is Chinese hamster lung fibroblast cells (CHL/IU cells). In words: Chromosome aberration test using mammals' cultured cells. The format is cell-based. The settings on record: short time and continuous treatment, negative = 5% or less. As to the method:
(7) Chromosome Aberration Test Using Mammals' Cultured Cells, for Examining Genetic Toxicity: Presence of clastogenic activity of the test compounds on cultured cells was examined by a chromosome aberration test using mammals' cultured cells (Mutat. Res., 48, 337-354). The test was conducted by short time treatment method and continuous treatment method, using Chinese hamster lung fibroblast cells (CHL/IU cells). […] After the end of the culture, the medium was removed and 5 mL of a fresh medium containing solvent or a test compound at the concentration levels designed as above was added to the dishes where the continuous treatment was intended. In the short time treatment in which no S9mix was added, 3 ML of the fresh medium similar to the above was added, and where S9mix was added, 3 mL of a fresh medium formed by adding 0.5 mL of S9mix to 2.5 mL of the fresh medium similar to the above was added to the respective dishes. […] In the continuous treatment, the culture time was increased to 24 hours. In both the short time treatment and continuous treatment, 50 μL of 10 μg/mL colcemide solution was added at two hours preceding the end of the culture. After the end of the culture, the cells were detached by 0.25% trypsine solution and transferred into a centifugation tube. […]

In another data set the test system is MCF-7 cells. Put plainly: MCF-7 cell proliferation measurement (MTT) for examining estrogenic activity. The settings on record: 4 days, 570 nm. It is filed as cell-based, human. How it is done: (3) MCF-7 Cell Proliferation Measurement for Examining Estrogenic Activity:
Stimulation of MCF-7 cell proliferation induced by estrogenic activity of each test compound was measured.
MCF-7 cells were cultured in 10% fetal bovine serum (FBS)-containing RPMI 1640 medium which was free from Phenol Red, using a 75 cm^2 culture flask. Then the medium was changed to RPMI 1640 medium containing 10% of FBS from which emdogenous steroid had been eliminated by charcoal treatment but containing no Phenol Red. Renewing the medium every two days, the culture was continued for 4 days. By this step estrogen was removed from the MCF-7 cells.
The MCF-7 cells were seeded on 96-well plates, 2,000 cells per well, and cultured for 24 hours to immobilize the cells on the plate. After the cell immobilization, the medium in each well was changed to RPMI 1640 medium containing 10^−6M test compound and 10% of charcoal-treated FBS but containing no Phenol Red, and the culture was continued for further 4 days, during which the medium was changed every day to one newly prepared before the use. Also control wells to which no test compound was added were provided.
After the end of the culture, the cell proliferation was measured by MTT (3-(4,5-dimethylthiazol-2-yl)-2,5-diphenyl-2H-tetrazolium bromide; Sigma-Aldrich Japan Co.) method. That is, an MTT solution as dissolved in PBS at a concentration of 5 mg/mL was added to the 96-well plate accommodating the cells, at a rate of 10 μL/well, followed by 2 hours' incubation at 37° C. After the end of the incubation, the medium was removed and the formazan which was taken into the cells and changed was dissolved with 100 μL of dimethylsulfoxide. Absorbance of the formazan was measured at wavelength 570 nm, using a microplate reader, subtracting the 630 nm background.
As shown by the Table 3, absorbance values of the wells to which the test compounds were added were invariably less than 150% of the absorbance of the control well, and it was confirmed that the test compounds were free of estrogenic activity.

Data set [2] deals with Salmonella typhimurium TA 100, TA 1535, TA 98 and TA 1537 strains and Escherichia coli WP 2 uvrA strains. In words: Reverse mutation test using bacteria (Ames test), with and without metabolic activation. It is filed as cell-based. The settings on record: 10-5,000 μg/well; with and without Rat Liver S9mix. As to the method:
(6) Reverse Mutation Test Using Bacteria (Ames Test) for Examining Presence of Gentic Toxicity:
Reverse mutation-inducing activity on bacteria of the test compounds was examined by reverse mutation test using bacteria (Mutat. Res., 113, 173-215). The test was conducted by plate incorporation method using Salmonella typhimurium TA 100, TA 1535, TA 98 and TA 1537 strains and Escherichia coli WP 2 uvrA strains as to both cases of not conducting metabolic activation and conducting metabolic activation. The dosages were set at six levels as 10, 50, 100, 500, 1000 and 5,000 μg/well.
Into a sterilized test tube, 0.1 mL of a test compound or a solvent, 0.5 mL of sodium-phosphate buffer (pH=7.4), 0.1 mL of a bacterial suspension and 2 mL of soft agar solution were added and mixed. Where metabolic activation was conducted, […] sodium-phosphate buffer (pH=7.4) was replaced with 0.5 mL of Rat Liver S9mix. The liquid mixture was superposed on the minimum glucose agar medium and after the superposed soft agar solution solidified, the system was cultured at 37° C. for 48 hours. At the end of the culture the number of colonies in which reverse mutation had been induced was visually counted with a colony counter. […]

The record followed here is patent publication US7449466B2, “Cyclic aminophenyl sulfamate derivative” (Aska Pharmaceutical Co., Ltd., priority 2003, dated 2008).

For `NS(=O)(=O)Oc1ccc(N2CCN(CCCC3CCCCC3)CC2)cc1F` [Example 24, 4-[4-(3-cyclohexylpropyl)piperazin-1-yl]-2-fluorophenyl-O-sulfamate], in data set [1], the “Chromosome aberration test: Numerical abnormality” value is recorded as “negative” and the “Chromosome aberration test: Structural abnormality” value is “negative”. The “Absorbance relative to that of the control well (10^−6 M, %)” value in the data set with MCF-7 cells is reported as 74.6%. The “Ames test (reverse mutation inducing activity)” value in data set [2] is “negative”.
